Data published in publication PMC5814047, “Peptidic inhibitors of insulin-degrading enzyme with potential for dermatological applications discovered via phage display” (PLoS ONE, 2018).
Converted amounts (≈) assume the structure as drawn. “And” between values parts separate entries of the source, which are not always exact repeats. Equal values may be shown once. Read-outs that look alike come from different tables or passages of the source. Bridge positions count the residues as written; N and C are the ends. Peptide text beside a SMILES is read from it.

Tests used:
[1] = Solubility in assay medium and cell culture medium; format: physicochemical; conditions: cosmetic-grade P12-3A, read-out: soluble up to
[2] = tested on: multiple matrix-metalloproteases (MMPs); assay: Matrix Metalloproteinase (MMP) Inhibitor Profiling Kit, Fluorometric RED; format: biochemical; set-up: % activity relative to DMSO-only controls, single runs / % activity relative to DMSO-only controls, Mean: concentration or dose not given beside the values; conditions: for % activity relative to DMSO-only controls, single runs: each run mean of duplicates
Protocol: (§1) IDE activity was quantified by monitoring the degradation of Mca-[…](Dnp) (FRET1, 5 μM), fluoresceinated and biotinylated amyloid ß-protein (FAßB; 500 nM) or recombinant human insulin (50 nM) in PBS supplemented with 0.05% BSA. FRET1 degradation was measured by changes in fluorescence (λex = 340 nm, λem = 420 nm); FAßB degradation was monitored by fluorescence polarization (λex = 488 nm, λem = 525 nm), as described; and insulin degradation was quantified by ELISA. In vitro activity assays incorporated recombinant human IDE (1 nM) purified from bacteria. For quantitation of insulin degradation in primary murine skin fibroblasts, cells (1 x 10^5/well) were plated in 96-well plates and maintained in DMEM supplemented with 10% fetal bovine serum (FBS), 2mM glutamine, penicillin and streptomycin. After addition of insulin (10 nM or 100 nM), samples of conditioned medium were removed daily and quickly frozen, then insulin levels were quantified in parallel by ELISA according to manufacturer’s recommendations (Crystal Chem, Downers Grove, IL, USA). Assessment of the activity of P12-3A against a variety of matrix-metalloproteases was conducted using the Matrix Metalloproteinase (MMP) Inhibitor Profiling Kit, Fluorometric RED (Enzo Life Sciences, Inc., Farmingdale, NY, USA) according to manufacturer’s recommendations using the broad-spectrum MMP inhibitor, NNGH, as a positive control.
Supplementary file pone.0193101.s004.tif: S4 Fig Selectivity of P12-3A for IDE vis-à-vis other proteases. Activity of P12-3A (100 μM) against (A) multiple matrix-metalloproteases (MMPs) and (B) multiple peptidases of different protease classes. […] Data are mean ± SD, n = 8–16 per group. P<0.05 by 2-tailed Student’s t-test. […] See Materials and Methods for details. NEP, neprilysin; mCatD, murine cathepsin D; hCatD, human cathepsin D. (TIF) Click here for additional data file.

[3] = molecular target: T1, IDE (Homo sapiens, UniProt P14735); assay: IDE activity assay, FAßB (amyloid ß-protein) degradation (fluorescence polarization); format: biochemical
T1 construct: made in house; host or cells: bacteria
T1 sequence (P14735 1-1019): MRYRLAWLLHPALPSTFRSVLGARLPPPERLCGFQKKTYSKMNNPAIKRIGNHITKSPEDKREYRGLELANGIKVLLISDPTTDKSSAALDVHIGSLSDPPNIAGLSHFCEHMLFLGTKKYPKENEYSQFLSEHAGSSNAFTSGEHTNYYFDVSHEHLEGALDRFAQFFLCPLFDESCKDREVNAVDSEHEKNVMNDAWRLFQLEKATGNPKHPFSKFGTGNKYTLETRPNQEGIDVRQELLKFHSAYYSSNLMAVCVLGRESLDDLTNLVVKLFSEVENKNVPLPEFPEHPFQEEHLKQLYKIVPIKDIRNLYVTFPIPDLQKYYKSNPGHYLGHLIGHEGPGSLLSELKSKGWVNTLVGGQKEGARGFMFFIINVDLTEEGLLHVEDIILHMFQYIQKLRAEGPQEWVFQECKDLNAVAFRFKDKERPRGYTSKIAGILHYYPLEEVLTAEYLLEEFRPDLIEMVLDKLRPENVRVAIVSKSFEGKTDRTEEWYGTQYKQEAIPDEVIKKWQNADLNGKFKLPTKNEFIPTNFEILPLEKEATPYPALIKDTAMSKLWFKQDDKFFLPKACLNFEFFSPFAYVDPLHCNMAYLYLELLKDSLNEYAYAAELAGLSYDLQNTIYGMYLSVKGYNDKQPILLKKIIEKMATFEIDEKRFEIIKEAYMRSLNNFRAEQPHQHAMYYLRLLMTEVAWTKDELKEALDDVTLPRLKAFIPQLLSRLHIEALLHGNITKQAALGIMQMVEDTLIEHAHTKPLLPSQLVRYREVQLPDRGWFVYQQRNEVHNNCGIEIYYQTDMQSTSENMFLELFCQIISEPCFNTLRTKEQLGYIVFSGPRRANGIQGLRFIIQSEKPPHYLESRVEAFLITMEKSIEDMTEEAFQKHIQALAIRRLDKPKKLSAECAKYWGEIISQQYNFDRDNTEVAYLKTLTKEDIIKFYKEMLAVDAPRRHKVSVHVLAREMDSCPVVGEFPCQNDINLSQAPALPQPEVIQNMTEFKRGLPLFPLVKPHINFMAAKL
Protocol: Taken together with the potency of all peptides against insulin (Table 1), we concluded that P12-3A represented the best inhibitor for further studies, and a highly purified, deliberately cyclized version (Fig 3A) was synthesized. […] Based on its potency, stability and selectivity for IDE, P12-3A was selected for use in downstream assays.
as §1

[4] = molecular target: T2, MMP-7 (Homo sapiens, UniProt P09237); assay: MMP Inhibitor Profiling Kit, MMP-7; format: biochemical; conditions: P12-3A 100 μM
T2 construct: purchased Enzo Life Sciences, Inc
T2 sequence (P09237 95-267): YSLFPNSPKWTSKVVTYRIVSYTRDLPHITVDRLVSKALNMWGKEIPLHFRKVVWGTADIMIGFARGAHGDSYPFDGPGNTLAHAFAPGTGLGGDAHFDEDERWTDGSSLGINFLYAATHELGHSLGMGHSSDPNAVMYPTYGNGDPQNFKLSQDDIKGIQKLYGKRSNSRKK
Protocol: as §1, with “control. […]” for “control.”

CC(C)C[C@H](NC(=O)[C@H](CO)NC(=O)[C@@H](N)CCC(N)=O)C(=O)N1CCC[C@H]1C(=O)N[C@@H](Cc1c[nH]c2ccccc12)C(=O)N[C@H]1CSSC[C@@H](C(=O)N[C@H](C(=O)N[C@H](C(N)=O)[C@@H](C)O)C(C)C)NC(=O)[C@H](Cc2c[nH]cn2)NC(=O)[C@@H]2CCCN2C(=O)[C@H](Cc2ccc(O)cc2)NC1=O [P12-3A] (H-QSLPWCYPHCVT-NH2; disulfide 6-10 (inferred))
solubility ([1]; assay medium (PBS/0.05%BSA)): ~500 µM (≈ 715 µg/mL) | solubility ([1]; cell culture medium): ~100 µM (≈ 143 µg/mL) | % activity relative to DMSO-only controls, Mean ([2]; MMP-1): 87% | % activity relative to DMSO-only controls, single runs ([2]; MMP-1): 105.8321% and 102.1980% and 83.6377% and 95.1040% and 96.8615% and 66.9344% and 67.7846% and 75.7623% | % activity relative to DMSO-only controls, Mean ([2]; MMP-2): 101% | % activity relative to DMSO-only controls, single runs ([2]; MMP-2): 134.1641% and 93.5356% and 119.9423% and 88.3713% and 112.6968% and 77.2842% and 100.8622% and 77.2868% | % activity relative to DMSO-only controls, Mean ([2]; MMP-3): 93% | % activity relative to DMSO-only controls, single runs ([2]; MMP-3): 94.6432% and 93.2955% and 89.9170% and 91.8916% and 91.6457% and 97.0044% and 92.2721% and 90.5895% | % activity relative to DMSO-only controls, Mean ([2]; MMP-8): 114% | % activity relative to DMSO-only controls, single runs ([2]; MMP-8): 99.7304% and 123.9354% and 116.1961% and 104.6766% and 117.7573% and 98.6189% and 113.4567% and 134.2719% | % activity relative to DMSO-only controls, Mean ([2]; MMP-9): 96% | % activity relative to DMSO-only controls, single runs ([2]; MMP-9): 99.3059% and 91.4690% and 98.9883% and 93.1451% and 94.2109% and 106.2066% and 100.0306% and 85.1586% | % activity relative to DMSO-only controls, Mean ([2]; MMP-12): 89% | % activity relative to DMSO-only controls, single runs ([2]; MMP-12): 81.7387% and 84.5842% and 96.0954% and 81.6283% and 94.7460% and 96.1245% and 93.1866% and 82.8317% | % activity relative to DMSO-only controls, Mean ([2]; MMP-13): 97% | % activity relative to DMSO-only controls, single runs ([2]; MMP-13): 85.9593% and 124.8564% and 91.0861% and 131.0115% and 78.1511% and 84.2743% and 87.8510% and 91.4553% | % activity relative to DMSO-only controls, Mean ([2]; MMP-14): 117% | % activity relative to DMSO-only controls, single runs ([2]; MMP-14): 110.7407% and 115.7751% and 123.1998% and 129.5171% and 110.1580% and 106.8971% and 114.7013% and 125.4828% | % activity relative to DMSO-only controls, Mean ([2]; MMP-19): 92% | % activity relative to DMSO-only controls, single runs ([2]; MMP-19): 98.6000% and 87.1925% and 92.0753% and 96.2890% and 86.4215% and 92.6495% and 89.4846% and 96.8071% | remaining activity at 0.0005 µM ([3]; FAßB, P12-3A 0.0005 uM, Replicates 4-6, read-out: Percent Activity (normalized source data)): 103% | remaining activity at 0.0016 µM ([3]; FAßB, P12-3A 0.0016 uM, Replicates 4-6, read-out: Percent Activity (normalized source data)): 102% | remaining activity at 0.005 µM ([3]; FAßB, P12-3A 0.005 uM, Replicates 4-6, read-out: Percent Activity (normalized source data)): 103% | remaining activity at 0.016 µM ([3]; FAßB, P12-3A 0.016 uM, Replicates 4-6, read-out: Percent Activity (normalized source data)): 77.6% | remaining activity at 0.05 µM ([3]; FAßB, P12-3A 0.050 uM, Replicates 4-6, read-out: Percent Activity (normalized source data)): 88.7% | remaining activity at 0.12 µM ([3]; FAßB, P12-3A 0.12 uM, Replicates 1-3, read-out: Percent Activity (normalized source data)): 96.6% | remaining activity at 0.16 µM ([3]; FAßB, P12-3A 0.16 uM, Replicates 4-6, read-out: Percent Activity (normalized source data)): 93.1% | remaining activity at 0.24 µM ([3]; FAßB, P12-3A 0.24 uM, Replicates 1-3, read-out: Percent Activity (normalized source data)): 79.9% | remaining activity at 0.49 µM ([3]; FAßB, P12-3A 0.49 uM, Replicates 1-3, read-out: Percent Activity (normalized source data)): 73.7% | remaining activity at 0.5 µM ([3]; FAßB, P12-3A 0.50 uM, Replicates 4-6, read-out: Percent Activity (normalized source data)): 85.8% | remaining activity at 0.98 µM ([3]; FAßB, P12-3A 0.98 uM, Replicates 1-3, read-out: Percent Activity (normalized source data)): 66.9% | remaining activity at 1.6 µM ([3]; FAßB, P12-3A 1.6 uM, Replicates 4-6, read-out: Percent Activity (normalized source data)): 61.7% | remaining activity at 3.91 µM ([3]; FAßB, P12-3A 3.91 uM, Replicates 1-3, read-out: Percent Activity (normalized source data)): 48.4% | remaining activity at 5 µM ([3]; FAßB, P12-3A 5.0 uM, Replicates 4-6, read-out: Percent Activity (normalized source data)): 48.4% | remaining activity at 7.81 µM ([3]; FAßB, P12-3A 7.81 uM, Replicates 1-3, read-out: Percent Activity (normalized source data)): 43.4% | remaining activity at 15.6 µM ([3]; FAßB, P12-3A 15.6 uM, Replicates 1-3, read-out: Percent Activity (normalized source data)): 45.5% | remaining activity at 31.2 µM ([3]; FAßB, P12-3A 31.2 uM, Replicates 1-3, read-out: Percent Activity (normalized source data)): 38.5% | remaining activity at 62.5 µM ([3]; FAßB, P12-3A 62.5 uM, Replicates 1-3, read-out: Percent Activity (normalized source data)): 10.9% | remaining activity at 250 µM ([3]; FAßB, P12-3A 250 uM, Replicates 1-3, read-out: Percent Activity (normalized source data)): 9.54% | inhibition of IDE in the selectivity panel ([3]; P12-3A 100 μM, S4 Fig): significant inhibition was observed exclusively for IDE | inhibition at 100 µM [4]: ~18%
